Laboratory results taken from ChEMBL document CHEMBL1201862, “PubChem BioAssay data set” (2004).
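In this assay, cells in 96-well plates receive the compound at five concentrations for 48 hours. Endpoints are linearly interpolated between the surrounding concentrations. At the GI50, growth is halved.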 Calls of active or inactive are those of the source. Cut-off read from the data, not from the text of the source: active = GI50 up to about 1.1 µM and inactive = higher.

Assays:
Experiment in all cases: NCI anticancer screen, dose series, 48 h
HCC 2998 = test system: HCC 2998
SNB-75 = test system: SNB-75
UACC-257 = test system: UACC-257
TK-10 = test system: TK-10
EKVX = test system: EKVX
MOLT-4 = test system: MOLT-4
SW-620 = test system: SW-620
NCI-H23 = test system: NCI-H23
SF-295 = test system: SF-295
HCT-116 = test system: HCT-116
SK-OV-3 = test system: SK-OV-3
SN12C = test system: SN12C
DU-145 = test system: DU-145
RXF 393 = test system: RXF 393
HCT-15 = test system: HCT-15
KM12 = test system: KM12
HOP-62 = test system: HOP-62
SF-268 = test system: SF-268
NCI-H460 = test system: NCI-H460
OVCAR-5 = test system: OVCAR-5

| SMILES | GI50 (HCC 2998) | GI50 (SNB-75) | GI50 (UACC-257) | GI50 (TK-10) | GI50 (EKVX) | GI50 (MOLT-4) | GI50 (SW-620) | GI50 (NCI-H23) | GI50 (SF-295) | GI50 (HCT-116) | GI50 (SK-OV-3) | GI50 (SN12C) | GI50 (DU-145) | GI50 (RXF 393) | GI50 (HCT-15) | GI50 (KM12) | GI50 (HOP-62) | GI50 (SF-268) | GI50 (NCI-H460) | GI50 (OVCAR-5) |
| --- | --- | --- | --- | --- | --- | --- | --- | --- | --- | --- | --- | --- | --- | --- | --- | --- | --- | --- | --- | --- |
| CSc1nc(Cl)c(Br)c(Nc2cnc(O)nc2O)n1 | 17.8 µM (inactive) | 17.7 µM (inactive) | 19.2 µM (inactive) | 14.7 µM (inactive) | 15.3 µM (inactive) | 13.4 µM (inactive) | 27.1 µM (inactive) | 17.3 µM (inactive) | 18.9 µM (inactive) | 14.6 µM (inactive) | 19.4 µM (inactive) | 18.2 µM (inactive) | 15.6 µM (inactive) | 22.1 µM (inactive) | 7.41 µM | 22.8 µM (inactive) | 16.9 µM (inactive) |  |  |  |
| CCNC(=O)c1cc(/C=C/c2ccc([N+](=O)[O-])o2)nc2ccccc12 | 5.26 µM (inactive) | 22 µM (inactive) | 3.67 µM (inactive) |  | > 58.2 µM (inactive) | 0.276 µM (active) | 13.7 µM (inactive) | 16.9 µM (inactive) | 41.7 µM (inactive) | 5.4 µM (inactive) | 33.6 µM (inactive) | 15.3 µM (inactive) | 2.74 µM (inactive) | 10.2 µM (inactive) | 3.88 µM | 98.6 µM (inactive) | 19.6 µM (inactive) | 23.7 µM (inactive) | 1.8 µM (inactive) | > 100 µM (inactive) |
| CC(=O)NC1C(OCc2ccccc2)OC(CO)C(O)C1OCC(=O)N[C@@H](C)C(=O)N[C@H](CCC(=O)NCCNc1ccc([N+](=O)[O-])c2[nH]c3ccccc3c(=O)c12)C(N)=O (some centres not stated) | 10.9 µM (inactive) | 22.8 µM (inactive) | 22.1 µM (inactive) | 15.4 µM (inactive) | 20.8 µM (inactive) |  | 7.74 µM (inactive) | 32.3 µM (inactive) | 37.4 µM (inactive) | 6.56 µM (inactive) | 81.5 µM (inactive) | 27.4 µM (inactive) | 33.4 µM (inactive) |  | 13.5 µM | 20.1 µM (inactive) | 36.3 µM (inactive) |  | 8.99 µM (inactive) | 37.2 µM (inactive) |
| COc1cc(S(=O)(=O)Nc2ccc(-c3csc(N4C(=O)C(Cl)C4c4cccs4)n3)cc2)ccc1Cl (configuration not stated) | 50.5 µM (inactive) | > 100 µM (inactive) | 28.1 µM (inactive) |  | 7.55 µM (inactive) | 11.4 µM (inactive) | 43.4 µM (inactive) | 29.4 µM (inactive) | > 100 µM (inactive) | 98.9 µM (inactive) | > 100 µM (inactive) | 82.6 µM (inactive) | > 100 µM (inactive) | 23.5 µM (inactive) | > 100 µM | 49.2 µM (inactive) | > 100 µM (inactive) | 39 µM (inactive) | 71.6 µM (inactive) | > 100 µM (inactive) |
| COc1c(C(=O)NCCN(CCNC(=O)c2cccc(-c3cccc(C(=O)N(C)C)c3OC)c2OC)CCNC(=O)c2cccc(-c3cccc(C(=O)N(C)C)c3OC)c2OC)cccc1-c1cccc(C(=O)N(C)C)c1OC | 17.2 µM (inactive) | 28.7 µM (inactive) | 29 µM (inactive) |  | 47.6 µM (inactive) | 24.7 µM (inactive) | 38.1 µM (inactive) | 43.2 µM (inactive) | > 100 µM (inactive) | 20 µM (inactive) | 48.1 µM (inactive) | 24.4 µM (inactive) | 32.7 µM (inactive) | 26.5 µM (inactive) | > 100 µM | 17.3 µM (inactive) | 97.7 µM (inactive) | 15.3 µM (inactive) | 94.4 µM (inactive) | 34.2 µM (inactive) |
| CC1(C)CCCCCC(C)(CCCO)C1=O (configuration not stated) | > 100 µM (inactive) | > 100 µM (inactive) | > 100 µM (inactive) |  | > 100 µM (inactive) | > 100 µM (inactive) | > 100 µM (inactive) | > 100 µM (inactive) | > 100 µM (inactive) | > 100 µM (inactive) | > 100 µM (inactive) | > 100 µM (inactive) | > 100 µM (inactive) | > 100 µM (inactive) | > 100 µM | > 100 µM (inactive) | > 100 µM (inactive) | > 100 µM (inactive) | > 100 µM (inactive) | > 100 µM (inactive) |
| Cc1nc(C)c(N2CCN(CN)CC2)c(O)n1 | > 100 µM (inactive) |  | > 100 µM (inactive) | > 100 µM (inactive) | > 100 µM (inactive) | > 100 µM (inactive) | > 100 µM (inactive) | > 100 µM (inactive) | > 100 µM (inactive) | > 100 µM (inactive) | > 100 µM (inactive) | > 100 µM (inactive) | > 100 µM (inactive) | > 100 µM (inactive) | > 100 µM | > 100 µM (inactive) | > 100 µM (inactive) | > 100 µM (inactive) | > 100 µM (inactive) |  |
| Cc1nc2ccc(NC3OCC(O)C(O)C3O)cc2c(=O)n1-c1ccccc1 (configuration not stated) | > 100 µM (inactive) | > 100 µM (inactive) | > 100 µM (inactive) | > 100 µM (inactive) | > 100 µM (inactive) | > 100 µM (inactive) | > 100 µM (inactive) | > 100 µM (inactive) | > 100 µM (inactive) | > 100 µM (inactive) |  | > 100 µM (inactive) | > 100 µM (inactive) | > 100 µM (inactive) | > 100 µM | > 100 µM (inactive) | > 100 µM (inactive) | > 100 µM (inactive) | > 100 µM (inactive) | > 100 µM (inactive) |
| Cc1nc2c(nc1C)-c1c(c3c(n1Cc1ccccc1)C(=O)CCC3)C(=O)C2=O | 2.86 µM (inactive) | 3.48 µM (inactive) | 6.37 µM (inactive) | 18.8 µM (inactive) | 5.69 µM (inactive) | 2.9 µM (inactive) | 3.07 µM (inactive) | 3.69 µM (inactive) | 13.7 µM (inactive) | 4.84 µM (inactive) | 18.9 µM (inactive) | 2.42 µM (inactive) | 5.08 µM (inactive) |  | 3.15 µM | 2.09 µM (inactive) | 8.79 µM (inactive) | 2.21 µM (inactive) | 4.62 µM (inactive) | 3.74 µM (inactive) |
| C=C1C(OC2O[C@@H]3O[C@@]4(C)CC[C@H]5[C@H](C)CC[C@@H](C2=C)[C@@]35O4)O[C@@H]2O[C@@]3(C)CC[C@H]4[C@H](C)CC[C@@H]1[C@@]24O3 (some centres not stated) | > 50 µM (inactive) |  | > 50 µM (inactive) | > 50 µM (inactive) | > 50 µM (inactive) | > 50 µM (inactive) | > 50 µM (inactive) | > 50 µM (inactive) | > 50 µM (inactive) | > 50 µM (inactive) | > 50 µM (inactive) | > 50 µM (inactive) | > 50 µM (inactive) | > 50 µM (inactive) | > 50 µM | > 50 µM (inactive) | > 50 µM (inactive) | > 50 µM (inactive) | > 50 µM (inactive) | > 50 µM (inactive) |
| OCC1CCC(n2cnc3c(O)ncnc32)O1 (configuration not stated) | > 100 µM (inactive) |  | > 87.9 µM (inactive) | > 1000 µM (inactive) | > 100 µM (inactive) | > 100 µM (inactive) | > 100 µM (inactive) | > 100 µM (inactive) |  | > 100 µM (inactive) | > 100 µM (inactive) | > 100 µM (inactive) | > 1000 µM (inactive) | > 100 µM (inactive) | > 100 µM | > 100 µM (inactive) | > 100 µM (inactive) |  | > 100 µM (inactive) | > 100 µM (inactive) |
